{
  "source": "patent US20070071819A1",
  "about": "“MULTIPLE UNIT MODIFIED RELEASE COMPOSITIONS OF CARBAMAZEPINE AND PROCESS FOR THEIR PREPARATION” (priority 2005, published 2007)",
  "origin": "cited, not measured here",
  "conditions": "below 4 μg/ml ineffective; greater than 12 μg/ml increased chances of side-effects",
  "data": [
    {"compound": "NC(=O)N1c2ccccc2C=Cc2ccccc21", "note": "[carbamazepine, 5H-dibenz-[b,f]azepine-5-carboxamide]", "values": [
      {"measurement": "therapeutic blood serum concentration range", "value": "4 to 12", "unit": "µg/mL"}
    ]}
  ]
}
